Measured values from article PMC10728895, “Stapled Phd Peptides Inhibit Doc Toxin Induced Growth Arrest in Salmonella” (ACS Chemical Biology, 2023).
Positions of bridges follow the written chain, without caps; N, C: chain ends. Non-standard residues stand in square brackets, D forms with d. Residues, ends and D or L forms follow the SMILES beside them. S5 = C=CCCC[C@](C)(N)C(=O)O; Nle = CCCC[C@H](N)C(=O)O

System: DocSTm toxin
Conditions: DocSTm 5 μM, peptide 50 μM, SYPRO Orange 3×, 20 mM K2HPO4, 50 mM (NH4)2SO4, pH 8.0; average Tm with peptide minus average Tm of free DocSTm; mean ± SD
Description: The thermal shift assay was performed using a Mx3005P qPCR System (Agilent) collecting fluorescence data with a temperature ramp of 25 to 95 °C. Samples were prepared in a buffer containing 20 mM K2HPO4 and 50 mM (NH4)2SO4 at pH 8.0, with a final concentration of recombinant Doc protein at 5 μM and Phd peptides at 50 μM. SYPRO Orange dye (Sigma-Aldrich, 5000X stock in DMSO) was used to monitor protein denaturation in a final concentration of 3×. The final sample volume was 20 μL. Each condition was prepared in triplicate in each independent experiment. The melting curves were plotted using GraphPad Prism 9 (GraphPad Software, USA), and the melting temperatures were obtained by fitting the sigmoidal section of the curves to a Boltzmann sigmoid function. For the calculation of thermal shifts ΔTm, the average melting temperature of free DocSTm toxin as determined in the respective peptide measurement cycles was subtracted from the average melting temperature of DocSTm in the presence of the peptide (Table S3).

Row | SMILES | ΔTm (thermal shift) of DocSTm in the presence of peptide
1 | CCCC[C@H](NC(=O)[C@H](Cc1c[nH]c2ccccc12)NC(C)=O)C(=O)N[C@@H](CC(N)=O)C(=O)N[C@@H](CC(N)=O)C(=O)N[C@@H](CCC(=O)O)C(=O)N[C@@H](Cc1ccccc1)C(=O)N[C@@H](C)C(=O)N[C@@]1(C)CCCC=CCCC[C@@](C)(C(=O)N[C@@H](Cc2c[nH]cn2)C(=O)NCC(=O)N[C@@H](CCCNC(=N)N)C(=O)N[C@@H](CCC(N)=O)C(=O)N[C@@H](CC(C)C)C(=O)N[C@@H](CCCNC(=N)N)C(=O)N[C@@H](CCCNC(=N)N)C(=O)N[C@@H](CC(C)C)C(=O)N[C@@H](C)C(=O)N[C@@H](CCCNC(=N)N)C(=O)N[C@@H](CCCCN)C(=O)O)NC(=O)[C@H](C)NC(=O)[C@H](CCCC)NC(=O)[C@H]([C@@H](C)CC)NC1=O [Peptide 37] (Ac-W[Nle]NNEFA[S5]I[Nle]A[S5]HGRQLRRLARK-OH; staple 8-12) | reduced stabilization

Same assay, conditions: DocSTm 5 μM, peptide 50 μM, pH 8.0; average ± SD, replicates 3-48 (Table S3)

Row | SMILES | Average Tm of DocSTm in the presence of peptide
2 | CCCC[C@H](NC(=O)[C@H](Cc1c[nH]c2ccccc12)NC(C)=O)C(=O)N[C@@H](CC(=O)O)C(=O)N[C@@H](CC(=O)O)C(=O)N[C@@H](CCC(=O)O)C(=O)N[C@@H](Cc1ccccc1)C(=O)N[C@@H](C)C(=O)N[C@@H](C)C(=O)N[C@H](C(=O)N[C@@H](CCCC)C(=O)N[C@@H](C)C(=O)N[C@H](C(=O)N[C@@H](Cc1c[nH]cn1)C(=O)NCC(=O)N[C@@H](CC(N)=O)C(=O)N[C@@H](CCC(=O)O)C(=O)N[C@@H](CC(C)C)C(=O)N[C@@H](CCCNC(=N)N)C(=O)N[C@@H](CCC(=O)O)C(=O)N[C@@H](CC(C)C)C(=O)N[C@@H](C)C(=O)N[C@@H](CCCNC(=N)N)C(=O)N[C@@H](CCCCN)C(=O)O)C(C)C)[C@@H](C)CC [Peptide 13] (Ac-W[Nle]DDEFAAI[Nle]AVHGNELRELARK-OH) | 72.7 ± 0.4 °C
3 | CCCC[C@H](NC(=O)[C@H](Cc1c[nH]c2ccccc12)NC(C)=O)C(=O)N[C@@H](CCCNC(=N)N)C(=O)N[C@@H](CC(N)=O)C(=O)N[C@@H](CCC(N)=O)C(=O)N[C@@H](Cc1ccccc1)C(=O)N[C@@H](C)C(=O)N[C@@H](C)C(=O)N[C@H](C(=O)N[C@@H](CCCC)C(=O)N[C@@H](CCCNC(=N)N)C(=O)N[C@H](C(=O)N[C@@H](Cc1c[nH]cn1)C(=O)NCC(=O)N[C@@]1(C)CCCC=CCCC[C@@](C)(C(=O)N[C@@H](CC(C)C)C(=O)N[C@@H](C)C(=O)N[C@@H](CC(N)=O)C(=O)N[C@@H](CCCCN)C(=O)O)NC(=O)[C@H](CCCNC(=N)N)NC(=O)[C@H](CC(C)C)NC(=O)[C@H](CCC(N)=O)NC1=O)C(C)C)[C@@H](C)CC [Peptide 23] (Ac-W[Nle]RNQFAAI[Nle]RVHG[S5]QLR[S5]LANK-OH; staple 15-19) | 57.5 ± 0.9 °C
4 | CCCC[C@H](NC(=O)[C@H](Cc1c[nH]c2ccccc12)NC(C)=O)C(=O)N[C@@H](CC(N)=O)C(=O)N[C@@H](CC(N)=O)C(=O)N[C@@H](CCC(=O)O)C(=O)N[C@@H](Cc1ccccc1)C(=O)N[C@@H](C)C(=O)N[C@@]1(C)CCCC=CCCC[C@@](C)(C(=O)N[C@@H](Cc2c[nH]cn2)C(=O)NCC(=O)N[C@@H](CCCNC(=N)N)C(=O)N[C@@H](CCC(N)=O)C(=O)N[C@@H](CC(C)C)C(=O)N[C@@H](CCCNC(=N)N)C(=O)N[C@@H](CCCNC(=N)N)C(=O)N[C@@H](CC(C)C)C(=O)N[C@@H](C)C(=O)N[C@@H](CCCNC(=N)N)C(=O)N[C@@H](CCCCN)C(=O)O)NC(=O)[C@H](C)NC(=O)[C@H](CCCC)NC(=O)[C@H]([C@@H](C)CC)NC1=O [Peptide 37] (Ac-W[Nle]NNEFA[S5]I[Nle]A[S5]HGRQLRRLARK-OH; staple 8-12) | 55.3 ± 1.5 °C
5 | CCCC[C@H](NC(=O)[C@H](Cc1c[nH]c2ccccc12)NC(C)=O)C(=O)N[C@@H](CC(=O)O)C(=O)N[C@@H](CC(=O)O)C(=O)N[C@@H](CCC(=O)O)C(=O)N[C@@H](Cc1ccccc1)C(=O)N[C@@H](CCCNC(=N)N)C(=O)N[C@@H](C)C(=O)N[C@H](C(=O)N[C@@H](CCCC)C(=O)N[C@@H](C)C(=O)N[C@H](C(=O)N[C@@H](Cc1c[nH]cn1)C(=O)NCC(=O)N[C@@H](CC(N)=O)C(=O)N[C@@H](CCC(=O)O)C(=O)N[C@@H](CC(C)C)C(=O)N[C@@H](CCCNC(=N)N)C(=O)N[C@@H](CCC(=O)O)C(=O)N[C@@H](CC(C)C)C(=O)N[C@@H](C)C(=O)N[C@@H](CC(=O)O)C(=O)N[C@@H](CCCCN)C(=O)O)C(C)C)[C@@H](C)CC [Peptide 5] (Ac-W[Nle]DDEFRAI[Nle]AVHGNELRELADK-OH) | 69.7 ± 0.7 °C
6 | CCCC[C@H](NC(=O)[C@H](Cc1c[nH]c2ccccc12)NC(C)=O)C(=O)N[C@@H](CC(=O)O)C(=O)N[C@@H](CC(=O)O)C(=O)N[C@@H](CCC(=O)O)C(=O)N[C@@H](Cc1ccccc1)C(=O)N[C@@H](C)C(=O)N[C@@H](C)C(=O)N[C@H](C(=O)N[C@@H](CCCC)C(=O)N[C@@H](C)C(=O)N[C@H](C(=O)N[C@@H](Cc1c[nH]cn1)C(=O)NCC(=O)N[C@@H](CCCNC(=N)N)C(=O)N[C@@H](CCC(=O)O)C(=O)N[C@@H](CC(C)C)C(=O)N[C@@H](CCCNC(=N)N)C(=O)N[C@@H](CCC(=O)O)C(=O)N[C@@H](CC(C)C)C(=O)N[C@@H](C)C(=O)N[C@@H](CC(=O)O)C(=O)N[C@@H](CCCCN)C(=O)O)C(C)C)[C@@H](C)CC [Peptide 9] (Ac-W[Nle]DDEFAAI[Nle]AVHGRELRELADK-OH) | 72.3 ± 0.4 °C
7 | CCCC[C@H](NC(=O)[C@H](Cc1c[nH]c2ccccc12)NC(C)=O)C(=O)N[C@@H](CCCNC(=N)N)C(=O)N[C@@H](CC(N)=O)C(=O)N[C@@H](CCC(=O)O)C(=O)N[C@@H](Cc1ccccc1)C(=O)N[C@@H](C)C(=O)N[C@@H](C)C(=O)N[C@H](C(=O)N[C@@H](CCCC)C(=O)N[C@@H](CCCNC(=N)N)C(=O)N[C@H](C(=O)N[C@@H](Cc1c[nH]cn1)C(=O)NCC(=O)N[C@@H](CC(N)=O)C(=O)N[C@@H](CCC(N)=O)C(=O)N[C@@H](CC(C)C)C(=O)N[C@@H](CCCNC(=N)N)C(=O)N[C@@H](CCC(=O)O)C(=O)N[C@@H](CC(C)C)C(=O)N[C@@H](C)C(=O)N[C@@H](CC(N)=O)C(=O)N[C@@H](CCCCN)C(=O)O)C(C)C)[C@@H](C)CC [Peptide 26] (Ac-W[Nle]RNEFAAI[Nle]RVHGNQLRELANK-OH) | 62.9 ± 0.3 °C
8 | CCCC[C@H](NC(=O)[C@H](Cc1c[nH]c2ccccc12)NC(C)=O)C(=O)N[C@@H](CC(=O)O)C(=O)N[C@@H](CCCNC(=N)N)C(=O)N[C@@H](CCC(=O)O)C(=O)N[C@@H](Cc1ccccc1)C(=O)N[C@@H](C)C(=O)N[C@@H](C)C(=O)N[C@H](C(=O)N[C@@H](CCCC)C(=O)N[C@@H](C)C(=O)N[C@H](C(=O)N[C@@H](Cc1c[nH]cn1)C(=O)NCC(=O)N[C@@H](CC(N)=O)C(=O)N[C@@H](CCC(=O)O)C(=O)N[C@@H](CC(C)C)C(=O)N[C@@H](CCCNC(=N)N)C(=O)N[C@@H](CCC(=O)O)C(=O)N[C@@H](CC(C)C)C(=O)N[C@@H](C)C(=O)N[C@@H](CC(=O)O)C(=O)N[C@@H](CCCCN)C(=O)O)C(C)C)[C@@H](C)CC [Peptide 3] (Ac-W[Nle]DREFAAI[Nle]AVHGNELRELADK-OH) | 67.4 ± 0.2 °C
9 | CCCC[C@H](NC(=O)[C@H](Cc1c[nH]c2ccccc12)NC(C)=O)C(=O)N[C@@H](CC(=O)O)C(=O)N[C@@H](CC(=O)O)C(=O)N[C@@H](CCC(=O)O)C(=O)N[C@@H](Cc1ccccc1)C(=O)N[C@@H](C)C(=O)N[C@@H](CCCNC(=N)N)C(=O)N[C@H](C(=O)N[C@@H](CCCC)C(=O)N[C@@H](C)C(=O)N[C@H](C(=O)N[C@@H](Cc1c[nH]cn1)C(=O)NCC(=O)N[C@@H](CC(N)=O)C(=O)N[C@@H](CCC(=O)O)C(=O)N[C@@H](CC(C)C)C(=O)N[C@@H](CCCNC(=N)N)C(=O)N[C@@H](CCC(=O)O)C(=O)N[C@@H](CC(C)C)C(=O)N[C@@H](C)C(=O)N[C@@H](CC(=O)O)C(=O)N[C@@H](CCCCN)C(=O)O)C(C)C)[C@@H](C)CC [Peptide 6] (Ac-W[Nle]DDEFARI[Nle]AVHGNELRELADK-OH) | 67.3 ± 1.4 °C
10 | CCCC[C@H](NC(=O)[C@H](Cc1c[nH]c2ccccc12)NC(C)=O)C(=O)N[C@@]1(C)CCCC=CCCC[C@@](C)(C(=O)N[C@@H](C)C(=O)N[C@H](C(=O)N[C@@H](CCCC)C(=O)N[C@@H](C)C(=O)N[C@H](C(=O)N[C@@H](Cc2c[nH]cn2)C(=O)NCC(=O)N[C@@H](CCCNC(=N)N)C(=O)N[C@@H](CCC(N)=O)C(=O)N[C@@H](CC(C)C)C(=O)N[C@@H](CCCNC(=N)N)C(=O)N[C@@H](CCCNC(=N)N)C(=O)N[C@@H](CC(C)C)C(=O)N[C@@H](C)C(=O)N[C@@H](CCCNC(=N)N)C(=O)N[C@@H](CCCCN)C(=O)O)C(C)C)[C@@H](C)CC)NC(=O)[C@H](Cc2ccccc2)NC(=O)[C@H](CCC(=O)O)NC(=O)[C@H](CC(N)=O)NC1=O [Peptide 34] (Ac-W[Nle][S5]NEF[S5]AI[Nle]AVHGRQLRRLARK-OH; staple 3-7) | 58.9 ± 1.1 °C
11 | CCCC[C@H](NC(=O)[C@H](Cc1c[nH]c2ccccc12)NC(C)=O)C(=O)N[C@@H](CC(N)=O)C(=O)N[C@@]1(C)CCCC=CCCC[C@@](C)(C(=O)N[C@H](C(=O)N[C@@H](CCCC)C(=O)N[C@@H](C)C(=O)N[C@H](C(=O)N[C@@H](Cc2c[nH]cn2)C(=O)NCC(=O)N[C@@H](CCCNC(=N)N)C(=O)N[C@@H](CCC(N)=O)C(=O)N[C@@H](CC(C)C)C(=O)N[C@@H](CCCNC(=N)N)C(=O)N[C@@H](CCCNC(=N)N)C(=O)N[C@@H](CC(C)C)C(=O)N[C@@H](C)C(=O)N[C@@H](CCCNC(=N)N)C(=O)N[C@@H](CCCCN)C(=O)O)C(C)C)[C@@H](C)CC)NC(=O)[C@H](C)NC(=O)[C@H](Cc2ccccc2)NC(=O)[C@H](CCC(=O)O)NC1=O [Peptide 35] (Ac-W[Nle]N[S5]EFA[S5]I[Nle]AVHGRQLRRLARK-OH; staple 4-8) | 59.9 ± 0.4 °C
12 | CCCC[C@H](NC(=O)[C@H](Cc1c[nH]c2ccccc12)NC(C)=O)C(=O)N[C@@H](CCCNC(=N)N)C(=O)N[C@@H](CC(N)=O)C(=O)N[C@@H](CCC(N)=O)C(=O)N[C@@H](Cc1ccccc1)C(=O)N[C@@H](CCCNC(=N)N)C(=O)N[C@@H](C)C(=O)N[C@H](C(=O)N[C@@H](CCCC)C(=O)N[C@@H](CCCNC(=N)N)C(=O)N[C@H](C(=O)N[C@@H](Cc1c[nH]cn1)C(=O)NCC(=O)N[C@@]1(C)CCCC=CCCC[C@@](C)(C(=O)N[C@@H](CC(C)C)C(=O)N[C@@H](C)C(=O)N[C@@H](CC(N)=O)C(=O)N[C@@H](CCCCN)C(=O)O)NC(=O)[C@H](CCCNC(=N)N)NC(=O)[C@H](CC(C)C)NC(=O)[C@H](CCC(N)=O)NC1=O)C(C)C)[C@@H](C)CC [Peptide 25] (Ac-W[Nle]RNQFRAI[Nle]RVHG[S5]QLR[S5]LANK-OH; staple 15-19) | 56.4 ± 3.0 °C
